Data taken from patent US7728142B2, “3-methanesulfonylquinolines as GABAB enhancers” (Hoffmann-La Roche Inc., priority 2005, dated 2010).
Where two headings read alike, the source gives them in different places.

Tests used:
[1] = test system: panic attacks and symptoms of anxiety; conditions: panic disorder patients; Hamilton, Zung anxiety scales, Katz-R nervousness subscale; cited from earlier work
symptoms of PTSD = conditions: small group of veterans with chronic, combat-related PTSD; cited from earlier work
prepulse inhibition = conditions: rat; cited from earlier work
[2] = in vivo; cited from earlier work
[3] = PO, cited from earlier work
GABABR1R2 = GABABR1R2 (Homo sapiens, UniProt O75899+Q9UBS5); conditions: absence of GABA; cited from earlier work
[4] = test system: cocaine self-administration; conditions: rats; cited from earlier work
[5] = test system: Gastro-Esophageal Reflux Disease; conditions: preclinical; cited from earlier work
human GABABR1aR2a [6] = target: T1, human GABABR1aR2a (Homo sapiens, UniProt O75899+Q9UBS5); experiment: Intracellular Ca2+ mobilization assay (FLIPR), enhancer concentration-response in presence of 10 nM GABA; format: cell-based; conditions: CHO-GABABR1aR2a-Gα16 cell; for Emax: enhancer 0.001-30 μM in presence of 10 nM GABA (EC10), read-out: Emax (%) at 10 nM GABA alone = 0% 10 μM GABA alone = 100%; for EC50: in presence of 10 nM GABA (EC10)
T1 construct: expressed in transfected cells
Experimental: (§1) Intracellular Ca^2+ Mobilization Assay
(§2) Chinese Hamster Ovary (CHO) cells stably expressing human GABABR1aR2a and Gα16 were seeded at 5×10^4 cells/well in the poly-D-lysine treated, 96-well, black/clear-bottomed plates (BD Biosciences, Palo Alto, Calif.). 24 h later, the cells were loaded for 90 min at 37° C. with 4 μM Flou-4 acetoxymethyl ester (Catalog No. F-14202, Molecular Probes, Eugene, Oreg.) in loading buffer (1×HBSS, 20 mM HEPES, 2.5 mM Probenecid). Hanks' Balanced Salt Solution (HBSS) (10×) (catalog No. 14065-049) and HEPES (1M) (catalog No. 15630-056) were purchased from Invitrogen, Carlsbad, Calif. Probenecid (250 mM) (catalog No. P8761) was from Sigma, Buchs, Switzerland. The cells were washed five times with loading buffer to remove excess dye and intracellular calcium mobilization, [Ca^2+] was measured using a Fluorometric Imaging Plate Reader (FLIPR, Molecular Devices, Menlo Park, Calif.) as described previously (Porter et al., Br. J. Pharmacol., 128, 13-20, 1999). The enhancers were applied 15 min before the application of the GABA. For GABA shift assay, concentration-response curves of GABA (0.0003-30 μM) were determined in the absence and presence of 10 μM enhancer. The GABA-shift is defined as Log [EC50 (GABA+10 μM enhancer)/EC50 (GABA alone)]. The % maximum enhancing effect (% Emax) and potency (EC50 value) of each enhancer was determined from concentration-response curve of the enhancer (0.001-30 μM) in the presence of 10 nM GABA (EC10). Responses were measured as peak increase in fluorescence minus basal, normalized to the maximal stimulatory effect induced by 10 μM GABA alone (considered 100%) and 10 nM GABA alone (considered 0%). The data were fitted with the equation Y=100+(Max−100)/(1+(EC50/[drug])^n) where Max is the maximum effect, EC50 the concentration eliciting a half-maximum effect and n the Hill slope.

human GABABR1aR2a [7] = target: T1, human GABABR1aR2a; experiment: GABA shift assay (Ca2+ mobilization, GABA curves with and without 10 μM enhancer); format: cell-based; conditions: CHO-GABABR1aR2a-Gα16 cell
Experimental: as §1, §2

anxiety [8] = conditions: cited from earlier work
cognition performance = conditions: passive avoidance, mice and rats; cited from earlier work
anxiety [9] = conditions: elevated plus maze (rat), elevated zero maze (mice and rats), stress-induced hyperthermia (mice); cited from earlier work

T1 sequence (Q9UBS5 15-961 limits assumed): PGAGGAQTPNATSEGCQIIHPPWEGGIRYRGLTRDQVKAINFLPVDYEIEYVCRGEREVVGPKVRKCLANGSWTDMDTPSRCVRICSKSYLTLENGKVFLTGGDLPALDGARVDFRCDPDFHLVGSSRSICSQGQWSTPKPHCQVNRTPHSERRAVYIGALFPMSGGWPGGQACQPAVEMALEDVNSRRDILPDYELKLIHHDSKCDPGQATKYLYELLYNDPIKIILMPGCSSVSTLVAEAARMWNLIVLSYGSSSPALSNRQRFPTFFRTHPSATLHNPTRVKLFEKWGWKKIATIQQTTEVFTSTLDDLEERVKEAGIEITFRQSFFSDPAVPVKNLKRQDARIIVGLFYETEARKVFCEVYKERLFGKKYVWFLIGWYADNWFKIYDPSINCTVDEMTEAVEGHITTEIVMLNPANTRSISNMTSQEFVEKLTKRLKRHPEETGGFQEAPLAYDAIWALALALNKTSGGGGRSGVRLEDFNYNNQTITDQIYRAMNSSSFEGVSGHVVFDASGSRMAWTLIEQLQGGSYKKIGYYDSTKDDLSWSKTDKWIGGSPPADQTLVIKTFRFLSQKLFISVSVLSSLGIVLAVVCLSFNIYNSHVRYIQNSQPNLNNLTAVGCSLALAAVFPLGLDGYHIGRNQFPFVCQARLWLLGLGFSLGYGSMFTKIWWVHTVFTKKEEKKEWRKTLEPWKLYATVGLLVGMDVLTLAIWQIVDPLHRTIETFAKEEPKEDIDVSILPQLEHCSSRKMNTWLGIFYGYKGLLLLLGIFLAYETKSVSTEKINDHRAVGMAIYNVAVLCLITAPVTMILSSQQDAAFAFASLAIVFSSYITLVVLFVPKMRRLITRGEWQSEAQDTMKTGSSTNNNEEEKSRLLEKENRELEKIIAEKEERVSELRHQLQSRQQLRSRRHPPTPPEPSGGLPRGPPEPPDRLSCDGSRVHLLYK
T1 sequence (O75899 42-941): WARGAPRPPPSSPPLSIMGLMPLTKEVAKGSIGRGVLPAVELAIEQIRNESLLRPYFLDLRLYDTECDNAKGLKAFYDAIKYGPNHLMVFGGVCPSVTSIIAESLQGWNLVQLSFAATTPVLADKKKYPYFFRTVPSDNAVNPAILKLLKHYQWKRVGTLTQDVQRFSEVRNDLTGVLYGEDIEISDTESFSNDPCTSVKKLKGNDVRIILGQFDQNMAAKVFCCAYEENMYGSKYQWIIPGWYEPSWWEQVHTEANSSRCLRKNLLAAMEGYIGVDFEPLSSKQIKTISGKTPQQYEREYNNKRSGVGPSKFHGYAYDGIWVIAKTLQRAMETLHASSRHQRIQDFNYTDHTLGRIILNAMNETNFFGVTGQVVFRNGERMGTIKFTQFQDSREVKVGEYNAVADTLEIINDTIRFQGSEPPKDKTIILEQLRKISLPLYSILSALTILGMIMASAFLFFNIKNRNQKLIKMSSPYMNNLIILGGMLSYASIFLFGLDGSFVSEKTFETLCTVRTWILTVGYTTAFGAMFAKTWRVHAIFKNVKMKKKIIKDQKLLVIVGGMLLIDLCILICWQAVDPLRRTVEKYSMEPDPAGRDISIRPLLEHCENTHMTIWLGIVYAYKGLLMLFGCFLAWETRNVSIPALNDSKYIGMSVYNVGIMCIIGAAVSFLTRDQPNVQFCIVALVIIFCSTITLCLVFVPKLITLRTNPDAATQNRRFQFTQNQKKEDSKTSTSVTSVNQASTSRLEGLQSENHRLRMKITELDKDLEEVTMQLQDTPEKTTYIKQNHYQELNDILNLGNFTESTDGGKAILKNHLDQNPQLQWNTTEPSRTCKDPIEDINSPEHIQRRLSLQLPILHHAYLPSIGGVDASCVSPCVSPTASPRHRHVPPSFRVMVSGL
Chain of GABABR1R2 (Q9UBS5 20-961): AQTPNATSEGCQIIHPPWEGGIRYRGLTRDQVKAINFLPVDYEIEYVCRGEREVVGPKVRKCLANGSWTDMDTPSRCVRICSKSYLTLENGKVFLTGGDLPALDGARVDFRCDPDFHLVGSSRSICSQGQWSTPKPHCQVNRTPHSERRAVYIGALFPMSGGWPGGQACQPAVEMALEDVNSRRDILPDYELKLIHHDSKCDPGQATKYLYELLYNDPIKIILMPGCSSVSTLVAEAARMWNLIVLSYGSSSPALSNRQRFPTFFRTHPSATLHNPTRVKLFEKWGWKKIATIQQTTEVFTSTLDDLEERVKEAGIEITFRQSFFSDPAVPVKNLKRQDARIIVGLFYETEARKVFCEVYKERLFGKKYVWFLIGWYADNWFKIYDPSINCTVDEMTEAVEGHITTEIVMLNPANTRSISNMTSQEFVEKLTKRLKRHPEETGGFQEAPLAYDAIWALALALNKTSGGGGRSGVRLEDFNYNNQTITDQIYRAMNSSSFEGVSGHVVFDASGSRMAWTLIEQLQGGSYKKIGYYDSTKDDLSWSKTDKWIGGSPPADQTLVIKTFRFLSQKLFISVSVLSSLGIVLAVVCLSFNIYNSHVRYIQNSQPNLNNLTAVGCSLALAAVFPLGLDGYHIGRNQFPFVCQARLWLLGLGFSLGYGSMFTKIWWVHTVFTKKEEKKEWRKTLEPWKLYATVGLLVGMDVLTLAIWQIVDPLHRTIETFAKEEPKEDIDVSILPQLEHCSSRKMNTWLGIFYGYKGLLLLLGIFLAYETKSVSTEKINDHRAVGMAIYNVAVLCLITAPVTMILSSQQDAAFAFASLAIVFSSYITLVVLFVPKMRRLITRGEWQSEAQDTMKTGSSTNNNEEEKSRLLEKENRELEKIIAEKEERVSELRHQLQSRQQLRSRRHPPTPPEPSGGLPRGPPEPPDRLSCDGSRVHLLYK
Chain of GABABR1R2 (O75899 42-941): as the sequence (O75899 42-941) above

Structure (SMILES)	Emax (human GABABR1aR2a [6]) [%]	EC50 (human GABABR1aR2a [6]) [µM]	GABA shift Log [EC50(GABA + 10 μM cp)/EC50(GABA alone)] (human GABABR1aR2a [7])	further results
NCC(CC(=O)O)c1ccc(Cl)cc1 (stereo not drawn) [Baclofen, β-chlorophenyl GABA]	–	–	–	reduction of number of panic attacks and symptoms of anxiety [1]: significantly effective; treatment of PTSD (symptoms of PTSD): effective and well-tolerated treatment; reversal of reduction in prepulse inhibition induced by dizocilpine (prepulse inhibition): able to reverse the reduction in prepulse inhibition; blood-brain-barrier penetration [2]: poor blood-brain-barrier penetration; effect on spontaneous locomotor activity, rotarod, body temperature and traction test ([3]; 2.5-15 mg/kg): showed these side effects
CC(C)(CO)Cc1cc(C(C)(C)C)c(O)c(C(C)(C)C)c1 [CGP7930, 2,6-di-tert-butyl-4-(3-hydroxy-2,2-dimethyl-propyl)-phenol]	–	–	–	effect on their own at GABAB receptors (GABABR1R2): no effect on their own; decrease of cocaine self-administration [4]: effective at decreasing cocaine self-administration; efficacy in GERD [5]: found to be effective
CC(C)(C=O)Cc1cc(C(C)(C)C)c(O)c(C(C)(C)C)c1 [CGP13501]	–	–	–	effect on their own at GABAB receptors (GABABR1R2): no effect on their own
Cc1nc2ccc(OC(F)(F)F)cc2c(-c2ccccc2)c1S(C)(=O)=O [Example 1, 3-Methanesulfonyl-2-methyl-4-phenyl-6-trifluoromethoxy-quinoline]	56	0.85	−0.7	–
Cc1nc2ccc(I)cc2c(N2CCOCC2)c1S(C)(=O)=O [Example 5, 6-Iodo-3-methanesulfonyl-2-methyl-4-morpholin-4-yl-quinoline]	30	2.1	−0.4	–
Cc1nc2ccc(I)cc2c(N2CCCCC2)c1S(C)(=O)=O [Example 9, 6-Iodo-3-methanesulfonyl-2-methyl-4-piperidin-1-yl-quinoline]	48	0.6	−1.2	–
Cc1nc2ccc(I)cc2c(N2CCC[C@@H](O)C2)c1S(C)(=O)=O [Example 11, (R)-1-(6-Iodo-3-methanesulfonyl-2-methyl-quinolin-4-yl)-piperidin-3-ol]	26	0.8	−0.8	–
Cc1nc2ccc(Br)cc2c(-c2ccc(F)cc2)c1S(C)(=O)=O [Example 14, 6-Bromo-4-(4-fluoro-phenyl)-3-methanesulfonyl-2-methyl-quinoline]	37	2.1	−0.45	–
CSc1nc(NC2CCCC2)c([N+](=O)[O-])c(NC2CCCC2)n1 [GS39783, N,N_-dicyclopentyl-2-methylsulfanyl-5-nitro-pyrimidine-4,6-diamine]	–	–	–	tolerance after chronic treatment (anxiety [8]; 21 days, 10 mg/kg, P.O., once daily): No tolerance; anxiolytic effects in light-dark box and elevated zero maze (anxiety [8]; acute and chronic treatment): anxiolytic effects; effect on spontaneous locomotor activity, rotarod, body temperature and traction test ([3]; 0.1-200 mg/kg): had no effect; effect on cognition performance (cognition performance): did not have any effect; anxiolytic-like effects (anxiety [9]): exhibited anxiolytic-like effects; decrease of cocaine self-administration [4]: effective at decreasing cocaine self-administration
